Data published in US10307383B2, “Cosmetic composition for preventing or ameliorating hypersensitive skin comprising cedrol or derivatives thereof, or pharmaceutically acceptable salts thereof” (University of Seoul Industry Cooperation Foundation, priority 2017, dated 2019).

What was measured:
[1] = Weight changes in the psoriasis induced mice (oral administration during imiquimod application); type: in vivo, Balb/c mouse; settings: 100 mg/kg oral once a day during application of IMQ; increase
Description: To investigate the delayed effect of cedrol, cedryl acetate, and alpha-cedrene on the development of psoriasis, total 5 groups of mice were prepared (8 mice/group). First, the hair of the entire back of the 8-week-old male Balb/c mouse whose immune system was weakened was removed by using a hair clipper (Kimlaube Hair pen 325,327, Rikei, Korea). In the middle of the shaved back of the mouse, 2 mg of imiquimod (3M Health Care Limited, England) was applied in the area of 2 cm×1.5 cm and also 1,125 mg of imiquimod was applied on the right ear of the mouse every day once a day to induce psoriasis.
The mice prepared above were divided into the distilled water treated group (IMQ), the cedrol treated group (C), the cedryl acetate treated group (CA), and the alpha-cedrene treated group (CE). […] The day when distilled water or the compound administration started was recorded as day 0 and the administration was performed once a day for a week, during which photo-recording was performed every day (FIGS. 2A˜2D). […]
To compare the weight changes in the psoriasis induced mice according to the oral administration of cedrol, cedryl acetate, and alpha-cedrene of Example <2-1>, the weight of each mouse was measured at the same time every day for a week.

[2] = system: psoriasis induced mice (imiquimod); test: Cumulative score of PASI for ear thickness, keratosis and skin flair (recovery phase); type: in vivo, Balb/c mouse; settings: 100 mg/kg oral after termination of imiquimod
Description: Imiquimod was applied to the psoriasis induced mice which had developed psoriasis for a week in Example <2-1>. The application was stopped 8 days after the application began. The groups CON and IMQ were treated with distilled water, the group C was treated with cedrol, the group CA was treated with cedryl acetate, the group CE was treated with alpha-cedrene alone at the concentration of 100 mg/kg in 200 μl, every day via oral-administration. Day 8 was the day the imiquimod application was stopped, since then the compounds were administered for 1 week once a day, during which photo-recording was performed (FIGS. 13A˜13D).
The psoriasis area severity index obtained in Examples <3-2> and <3-4> was accumulated to compare the psoriasis area severity index for ear thickness, keratosis and skin flair of the mouse groups respectively treated with cedrol, cedryl acetate, and alpha-cedrene via oral-administration.

C[C@@H]1CC[C@H]2C(C)(C)[C@H]3C[C@@]12CC[C@@]3(C)O [cedrol, Cedrol]
weight change for 7 days [1]: 0.025 g
cumulative PASI (ear thickness, keratosis, skin flair) recovery effect, in words [2]: strongest recovery effect
